Assay results published in patent publication US6114318A, “17β-(2-oxo-tetrahydrofuranyl)-thio- substituted androstane derivatives” (Glaxo Group Limited, priority 1995, dated 2000).

Tests used:
[1] = system: Rat Ear Oedema; assay: Anti-Inflammatory Activity--Inhibition of Rat Ear Oedema (croton oil); type: in vivo; details: dose 100 μg, inner surface of ears, male rats, 6 hours
Description: (i) Anti-Inflammatory Activity--Inhibition of Rat Ear Oedema
The test compounds are dissolved in acetone and 40ul containing 5% croton oil is applied to the inner surface of each of the ears of 60-80 g male rats. Animals are killed 6 hours later and the ears are removed. Standard size (0.5 cm diameter) discs are punched out and the discs weighed. Mean weight of the ear discs is calculated and from this percentage inhibition of ear inflammation in relation to croton oil alone treated ears are calculated.

[2] = system: ACTH; assay: Systemic Effects--ACTH Suppression in Adrenalectomised Rats; type: in vivo, Male CD rats; details: single intra-tracheal, 4 h
Description: (ii) Systemic Effects--ACTH Suppression in Adrenalectomised Rats
Male CD rats (90-120 g) were adrenalectomised under Isoflurane anaesthesia and drinking water was supplemented with 0.9% saline. Four days later the animals receive a single intra-tracheal dose (under Isoflurane anaesthesia) of compound suspended in saline (containing 0.2% Tween-80, 0.2 ml) at 10am. After 4 h animals are sacrificed by administration of Euthetal and blood samples are taken by intra-cardiac puncture and collected into heparinised tubes. The samples are centrifuged (20 minutes at 1000 RPM at 4 deg C.), the plasma is collected and assayed by Radioimmunoassay (RIA) for Adrenocorticotrophic hormone (ACTH) using a DPC double antibody RIA kit. Intact and vehicle control groups were included in each experiment in order to account for diurnal variation in ACTH and effects of vehicle. Results are calculated with respect to the RIA standard curve and expressed as ACTH pg/ml plasma, allowing percentage reduction in ACTH to be calculated.

Structure (SMILES): CC1(C)O[C@@H]2C[C@H]3[C@@H]4C[C@H](F)C5=CC(=O)C=C[C@]5(C)[C@@]4(F)[C@@H](O)C[C@]3(C)[C@]2(SC2CCOC2=O)O1 (single isomer, unassigned) [Example 2 Isomer A, 6α,9α-Difluoro-11β-hydroxy-16α,17α-isopropylidenedioxy-17β-(2-oxo-tetrahydro-furan-3-yl-sulfanyl)-androsta-1,4-dien-3-one]
- % Inhibition (ear inflammation) [1]: 56%
- % Reduction in ACTH ([2]; dose 125 μg): 5%
- % Reduction in ACTH ([2]; dose 250 μg): 29%
- % Reduction in ACTH ([2]; dose 500 μg): 45%

Structure (SMILES): CC1(C)O[C@@H]2C[C@H]3[C@@H]4C[C@H](F)C5=CC(=O)C=C[C@]5(C)[C@@]4(F)[C@@H](O)C[C@]3(C)[C@]2(S[C@H]2CCOC2=O)O1 (single isomer, unassigned) [Example 2 Isomer B, 6α,9α-Difluoro-11β-hydroxy-16α,17α-isopropylidenedioxy-17β-(2-oxo-tetrahydro-furan-3-yl-sulfanyl)-androsta-1,4-dien-3-one]
- % Inhibition (ear inflammation) [1]: 54%

Structure (SMILES): CCC[C@@H]1O[C@@H]2C[C@H]3[C@@H]4C[C@H](F)C5=CC(=O)CC[C@]5(C)[C@@]4(F)[C@@H](O)C[C@]3(C)[C@]2(SC2CCOC2=O)O1 (single isomer, unassigned) [Example 3 Isomer A, 16α,17α-(R-Butylidenedioxy)-6α,9α-difluoro-11β-hydroxy-17β-(2-oxo-tetrahydro-furan-3-yl-sulfanyl)-androst-4-en-3-one]
- % Inhibition (ear inflammation) [1]: 55%

Structure (SMILES): CC1(C)O[C@@H]2C[C@H]3[C@@H]4C[C@H](F)C5=CC(=O)C=C[C@]5(C)[C@@]4(F)[C@@H](O)C[C@]3(C)[C@]2(C(=O)CO)O1 [Fluocinolone acetonide, reference compound]
- % Reduction in ACTH ([2]; dose 1 μg): 49%
- % Reduction in ACTH ([2]; dose 5 μg): 84%
